Read-outs that look alike come from different tables or passages of the source. Peptide text beside a SMILES is read from it. * marks the point of attachment. X2 = O=C1OC2(C(=O)*)C3C4CC5C6C4C2C6C1(O)C53; X1 = O=C1NC2(N*)C3C4CC5C6C4C2C6C1(O)C53
Columns and labels:
[1] = 1H NMR, ref [19],[20], cited from earlier work
Procedure: It is therefore most likely that the lactam form is the active form in aqueous solution (also used for the IC50 experiments). The conformation for the amide side chain with the lowest energy was determined. In both cases this conformation involved intramolecular hydrogen bonding (O5 ...

[2] = biological target: T1, wild type C-South African (C-SA) HIV-1 protease (Human immunodeficiency virus type 1 group M subtype B, UniProt P12497, H557K/I503V/I581L/L507I/L577M/M524I/R529K/T500S); assay: in vitro HIV-1 protease inhibition (C-SA PR); assay type: biochemical, HIV-1 subtype C
T1 construct: Over-expression, extraction and purification of the C-SA protease and in vitro HIV-1 protease activity were reported in our earlier publications; made in house
Source text: Over-expression, extraction and purification of the C-SA protease and in vitro HIV-1 protease activity were reported in our earlier publications. Genetic diversity among HIV-1 subtypes ranges between 25 and 35% at the nucleotide level and variation within subtypes vary from 15 to 20% [48, 49].
The HIV-1 subtype C PR that predominates in South Africa (C-SA PR) is defined as the consensus subtype C PR [51]. This C-SA PR contains eight polymorphic sites (T12S, I15V, L19I, M36I, R41K, H69K, L89M, and I93L) in relation to the wild-type subtype B HIV-1 PR [52].
The procedures followed were the same as reported before ^12,13.

| Compound | IC50 [2] | other results |
| --- | --- | --- |
| CC(=O)NC12N=C(O)C3(O)C4C5CC(C6C5C3C61)C42 (racemic) [PCU-lactim] | – | tautomer preference ([1]; dioxane): dominant |
| CC(=O)NC12NC(=O)C3(O)C4C5CC(C6C5C3C61)C42 (racemic) [PCU-lactam] | – | tautomer preference ([1]; (CD3)2SO): major tautomer |
| CC[C@H](C)[C@H](NC(=O)[C@H](C)NC(=O)C12OC(=O)C3(O)C4C5CC(C6C5C3C61)C42)C(=O)N[C@@H](CO)C(N)=O (some centres unmarked) [PCU-lactone-CO-AIS] | 830 nM | – |
| CC[C@H](C)[C@H](NC(=O)[C@H](C)NC(=O)[C@H](CCC(=O)O)NC(=O)C12OC(=O)C3(O)C4C5CC(C6C5C3C61)C42)C(=O)N[C@@H](CO)C(N)=O (some centres unmarked) [PCU-lactone-CO-EAIS] (X2-EAIS-NH2) | 850 ± 180 nM | IC50 relative to the corresponding cage lactam peptide ([2]; C-SA HIV-1 protease): eleven times weaker |
| COC(=O)N[C@H](C(=O)N[C@@H](Cc1ccccc1)[C@@H](O)CN(Cc1ccc(-c2ccccn2)cc1)NC(=O)[C@@H](NC(=O)OC)C(C)(C)C)C(C)(C)C [Atazanavir, reference compound] | 4 ± 0.71 nM | – |
| CC[C@H](C)[C@H](NC(=O)[C@@H](N)CO)C(=O)N[C@@H](C)C(=O)N[C@@H](CCC(=O)O)C(=O)NC12NC(=O)C3(O)C4C5CC(C6C5C3C61)C42 (some centres unmarked) [PCU-lactam-NH-EAIS] (H-SIAE-X1) | ~78 nM | – |
| CC[C@H](C)[C@H](NC(=O)[C@H](C)NC(=O)[C@H](CCC(=O)O)NC(=O)C12OC(=O)C3(O)C4C5CC(C6C5C3C61)C42)C(N)=O (some centres unmarked) [PCU-lactone-CO-EAI] | 2600 nM | – |

— publication PMC4387594, “Pentacycloundecane lactam vs lactone norstatine type protease HIV inhibitors: binding energy calculations and DFT study” (Journal of Biomedical Science, 2015)
